In patent US4320117A, “Polypeptide” (Imperial Chemical Industries Limited, priority 1976, dated 1982):
Square brackets hold non-standard residues; d marks the D form. Peptide text beside a SMILES is read from it.

Tests used:
cat = settings: injected directly into the 3rd ventricle of the cat; cited from earlier work
[1] = system: mouse hot-plate test (thermal stimulus, 56° C.); assay: mouse hot-plate test; assay type: in vivo, mice; settings: for mean increase in reaction time: female mice, hot plate at 56° C.
Method: As noted above, the compound of the formula I has analgesic activity in warm-blooded animals. […] This test is carried out as follows. Groups of three female mice each weighing 22 to 25g. are used to test each compound. Each mouse is placed on a heated thermostatically-controlled copper surface at 56° C., and the time taken to react to the thermal stimulus (for example by licking its hind paws) is recorded. Normal reaction times are in the range of 3 to 5 seconds.
Each of the three mice is then dosed intravenously with 100 mg./kg. of a solution of the test compound. At 5, 10 and 30 minutes after dosing, each mouse is again placed on the hot plate and its reaction time determined. […] In this circumstance the compound is regarded as having maximum activity at this dose.
A compound producing a mean increase in reaction time of at least three seconds is regarded as active. An active compound is then retested at lower doses.

Row | Molecule | analgesic properties (cat) | mean increase in reaction time ([1]; intravenous dose of 100 mg./kg.) [s] | mean increase in reaction time ([1]; intravenous, 25 mg./kg.) [s] | duration of analgesic effect ([1]; mice, intravenous, 100 mg./kg.) | signs of toxicity ([1]; mice, intravenous, 100 mg./kg.)
1 | β-endorphin: residues 61-91 of the naturally-occurring lipolytic polypeptide hormone lipotropin (C-fragment of lipotropin) (YGGFMTSEKSQTPLVTLFKNAIIKNAYKKGE; Beta-endorphin; UniProt P01189 237-267, looked up) | possesses analgesic properties | – | – | – | –
2 | CC[C@H](C)[C@H](NC(=O)[C@H](C)NC(=O)[C@H](CC(N)=O)NC(=O)[C@H](CCCCN)NC(=O)[C@H](Cc1ccccc1)NC(=O)[C@H](CC(C)C)NC(=O)[C@@H](NC(=O)[C@@H](NC(=O)[C@H](CC(C)C)NC(=O)[C@@H]1CCCN1C(=O)[C@@H](NC(=O)[C@H](CCC(N)=O)NC(=O)[C@H](CO)NC(=O)[C@H](CCCCN)NC(=O)[C@H](CCC(=O)O)NC(=O)[C@H](CO)NC(=O)[C@@H](NC(=O)[C@H](CC(C)C)NC(=O)[C@H](Cc1ccccc1)NC(=O)CNC(=O)[C@@H](C)NC(=O)[C@@H](N)Cc1ccc(O)cc1)[C@@H](C)O)[C@@H](C)O)C(C)C)[C@@H](C)O)C(=O)N[C@H](C(=O)N[C@@H](CCCCN)C(=O)N[C@@H](CC(N)=O)C(=O)N[C@@H](C)C(=O)N[C@@H](Cc1c[nH]cn1)C(=O)N[C@@H](CCCCN)C(=O)N[C@@H](CCCCN)C(=O)NCC(=O)N[C@@H](CCC(N)=O)C(=O)O)C(C)C [Example] (H-Y[dA]GFLTSEKSQTPLVTLFKNAIVKNAHKKGQ-OH) | – | 15 | 6 | at least 3 hours | no obvious signs of toxicity
